Source: patent US9416134B2 (Signal Pharmaceuticals, LLC, priority 2014, dated 2016)
≈ marks a conversion by molar mass, not a printed value.

Assays:
[1] = Feasibility study on Form 1 (solubility in freeze-drying solvent mixtures); assay type: physicochemical; conditions: thermodynamic from solid
Protocol: The freeze drying experiments were performed in 1.8 ml vials. Approximately 20 mg of starting material were weight in a HPLC vial and dissolved in five different solvent mixtures. […] These two experimental samples were freeze-dried in liquid nitrogen, followed by placing the vials in a freeze-dryer for 24 hours. The obtained solid was then harvested and analyzed by XRPD and digital imaging.
Grinding experiments were performed in stainless steel grinding vials, containing 2 stainless steel grinding balls and a frequency of 30 Hz. Following the experiments, XRPD analysis was performed to assess the crystallinity of the materials.

[2] = Water solubility of Form 1 (observation from slurry experiment in water); assay type: physicochemical
Protocol: After the slurry time, the solids were separated from the solutions by centrifugation, harvested wet and analyzed by XRPD and digital imaging. The solids were then exposed to accelerated aging conditions (2 days at 40° C./75% RH), followed by XRPD re-analysis.
The slurry experiment in water for two weeks at room temperature produced the anhydrous starting material, Form 1.

## CCN1C(=O)CNc2ncc(-c3ccc(-c4nc[nH]n4)nc3C)nc21 [Form 1, 1-ethyl-7-(2-methyl-6-(1H-1,2,4-triazol-3-yl)pyridin-3-yl)-3,4-dihydropyrazino[2,3-b]pyrazin-2(1H)-one]
[1]; aqueous with cosolvent or surfactant or cyclodextrin, THF/Water (50/50), 25.1 mg in 1000 μL, not dissolved
  solubility: < 25 mg/mL
[1]; organic solvent or mixture, Ethanol/water (90/10), 24.2 mg in 400 μL, not dissolved
  solubility: < 60 mg/mL
[1]; organic solvent or mixture, TFE/water (90/10), 20.7 mg in 1000 μL, dissolved
  solubility: 21 mg/mL (≈ 62.4 mM)
[1]; organic solvent or mixture, TFE, 21.9 mg in 1000 μL, dissolved
  solubility: 22 mg/mL (≈ 65.4 mM)
[1]; organic solvent or mixture, THF/water (90/10), 24.8 mg in 1000 μL, not dissolved
  solubility: < 25 mg/mL
[2]
  Solubility in water: practically insoluble
